This assay relates to bronchoconstriction induced by PAF. The assay can be described thus: Effect on bronchoconstriction induced by platelet activating factor (PAF) in guinea pigs (Konzett-Rossler method). The class given is in vivo, guinea pig (male Hartley). The conditions noted are these: Cavia porcellus, po, 30 mg/kg orally 1 hour before PAF (1 μg/kg i.v.), suspended in 5% gum arabic, recorded for 15 minutes, male Hartley guinea pigs. As to the method: Effect On bronchoconstriction Induced By Platelet Activating Factor (PAF) In Guinea Pigs
Male Hartley guinea pigs (body weight 500 g) were used. The bronchoconstriction reaction in the guinea pig which has intravenously received PAF (1 μg/Kg) was measured by the Konzett-Rossler method. The trachea of the guinea pig with its back fixed was incised under anesthesia condition with urethane (intraperitoneal injection, 1.50 g/kg) and connected with an artificial respirator via a cannula. The branch of the tracheal cannula was connected with a transducer (7020 type, Ugobasile). Air was sent to the trachea at the volume of 3-7 ml/stroke, at the rate of 70 strokes/min. at load pressure of 10 cm H2 O to lung and overflowed air volume was recorded with Rectegraph (Recte-Hori-8s, Sanei Sokuki) via the transducer. After the guinea pig was treated with gallamine (1 mg/kg, i.v.), PAF (1 μg/kg) dissolved in a physiological saline solution was administered to the guinea pig via a jugular venous cannula and the bronchoconstriction reaction induced thereby was recorded for 15 minutes. The drug (30 mg/kg) suspended in a 5% gum arabic solution was administered orally 1 hour before the injection of PAF.
In the case of `NS(=O)(=O)CCCSc1ccc2nccn2n1` [Example 1, 6-(3-sulfamoylpropylthio)imidazo [1,2-b]pyridazine], 30 mg/kg produced 71% inhibition in vivo.
As to `CN(C)S(=O)(=O)CCCSc1ccc2nccn2n1` [Example 9], 30 mg/kg produced 52% inhibition in vivo.
In the case of `O=S(=O)(CCCSc1ccc2nccn2n1)NCCc1cccnc1` [Example 19] it was 41%.
In turn, `Cn1cccc1CCNS(=O)(=O)CCCSc1ccc2nccn2n1` [Example 20] came in with an inhibition in vivo at 30 mg/kg of 41%.
The figure for `O=S(=O)(CCSc1ccc2nccn2n1)NC1CC1` [Example 25, 6-[2-(N-cyclopropylsulfamoyl)ethylthio] imidazo[1,2-b]pyridazine] is 47%; for `NS(=O)(=O)CCSc1ccc2nccn2n1` [Example 26] it is 42%; for `NS(=O)(=O)CCCCCSc1ccc2nccn2n1` [Example 29, 6-(5-sulfamoylpentylthio)imidazo[1,2-b]pyridazine] it is 51%.
The figure for `NS(=O)(=O)CCCCSc1ccc2nccn2n1` [Example 30] is 73%; for `CC(CSc1ccc2nccn2n1)CS(N)(=O)=O` (stereo not drawn) [Example 31] it is 74%.
In the case of `CCC(CSc1ccc2nccn2n1)CS(N)(=O)=O` (stereo not drawn) [Example 32] it was 80%; in that of `NS(=O)(=O)CC(CSc1ccc2nccn2n1)c1ccccc1` (stereo not drawn) [Example 33], 52%; in that of `NS(=O)(=O)CCC(Sc1ccc2nccn2n1)c1ccccc1` (stereo not drawn) [Example 34], 38%.
Take `C[C@@H](CSc1ccc2nccn2n1)CS(N)(=O)=O` [Example 35, (+)-6-[(2-(S)-methyl-3-sulfamoylpropyl)thio]imidazo[1,2-b]pyridazine]: at 30 mg/kg the inhibition in vivo was 79%.
The figure for `CC(C)(CSc1ccc2nccn2n1)CS(N)(=O)=O` [Example 37, 6-[(3-sulfamoyl-2,2-dimethylpropyl)thio]imidazo[1,2-b]pyridazine] is 99%; for `CC(C)(COc1ccc2nccn2n1)CS(N)(=O)=O` [Example 39, 6-[(2,2-dimethyl-3-sulfamoylpropyl)oxy]imidazo[1,2-b]pyridazine] it is 72%; for `C[C@H](COc1ccc2nccn2n1)CS(N)(=O)=O` [Example 40, (+)-6-[(2-(R)-methyl-3-sulfamoylpropyl)oxy]imidazo[1,2-b]pyridazine] it is 53%.
In the case of `NS(=O)(=O)CCCOc1ccc2nccn2n1` [Example 41] it was 66%.
In turn, `CCC(COc1ccc2nccn2n1)CS(N)(=O)=O` (stereo not drawn) [Example 42] registered an inhibition in vivo at 30 mg/kg of 55%.
The figure for `NS(=O)(=O)CCCSc1ccc2ncc(Cl)n2n1` [Example 43, 3-chloro-6[(3-sulfamoylpropyl)thio]imidazo[1,2-b]pyridazine] is 54%.
`CC(C)(COc1ccc2ncc(Cl)n2n1)CS(N)(=O)=O` [Example 45, 3-chloro-6-[(2,2-dimethyl-3-sulfamoylpropyl)oxy]imidazo[1,2-b]pyridazine] showed an inhibition in vivo at 30 mg/kg of 50%.
The figure for `CCC(CC)(COc1ccc2nccn2n1)CS(N)(=O)=O` [Example 47, 6-[(2,2-diethyl-3-sulfamoylpropyl)oxy]imidazo[1,2-b]pyridazine] is 90%.

Usually inhibition in vivo stands for the relative decrease from the control value, in per cent. A low value points to little suppression.

Source of the values: US5155108A, “Imidazopyridazines and use as antiasthmatic agents” (Takeda Chemical Industries, Ltd., priority 1990, dated 1992).
